Measurements: US8022056B2, “Compositions and methods for the treatment of cancer” (Tautatis, Inc, priority 2006, dated 2011)

Columns and labels:
[1] = tested on: target kinases versus GSK3, PKC and PKA; test: Kinase potency and selectivity profile under identical kinase assay conditions; assay type: biochemical
Excerpt: Relative to the compounds disclosed in WO00/01699 and WO04/048384, compounds of the structural formula 1-4 have a higher degree of selectivity in favor of several antiproliferative kinases, as exemplified for the representative compound 1 and directly related compounds 7 of WO04/048384 and 8-9 of WO00/01699, containing the general scaffold of 10, respectively.

PKC = test: Kinase inhibition under standard conditions, PKC; assay type: biochemical
ERK2 = ERK2 (Homo sapiens, UniProt P28482); test: Kinase inhibition under standard conditions, ERK2; assay type: biochemical
CDK1 = CDK1 (Homo sapiens, UniProt P06493); test: Kinase inhibition under standard conditions, CDK1; assay type: biochemical
GSK3 = test: Kinase inhibition under standard conditions, GSK3; assay type: biochemical
PKA = test: Kinase inhibition under standard conditions, PKA; assay type: biochemical
[2] = tested on: breast cancer tumor cell lines; conditions: large panel, Konecny et al.; cited from earlier work
[3] = Propper et al.; cited from earlier work
[4] = tested on: HT29 colon cancer cell line; test: Long-term growth inhibition, crystal violet staining; assay type: cell-based, human; conditions: 10 nM
Description: (§1) For proliferation assays tumor cell suspensions (100 μl/well) were seeded into 96-well flat bottomed microtitration plates at a density of ca. 15 cells/microscopic field (magnification 320×). After 2-3 days the culture medium was removed by suction and replaced by fresh medium (200 μl/well) containing varying concentrations of the compound of the formula 1 or vehicle (0.5% DMSO). Compound 1 was added as […] concentrated feed solutions. On every plate 16 wells served as controls and 16 wells were used per concentration of 1. After various times of incubation the cells were fixed with glutardialdehyde and stored in a refrigerator. At the end of the assay all plates were processed simultaneously (staining with 0.02% aqueous crystal violet solution (100 μl/well). Excess dye was removed by rinsing the trays with water for 20 min. The stain bound by the cells was redissolved in 70% ethanol (180 μl/well) while shaking the microplates for about 3 hours. Absorbance (proportional to cell mass) was measured at 578 nm using a BIOTEK 309 Autoreader. The results (mean values±standard deviation) were plotted as growth curves.
The HT29 human colon cancer cell line (obtained from ATCC, Rockville, USA) was cultured as above. Treatment with the compound of the formula 1 and analysis of growth inhibition was performed analogous to Example 3.

[5] = tested on: MDA-MB-231 breast cancer cell line; test: as above; assay type: cell-based, human
Description: The human estrogen receptor and EGF receptor negative MDA-MB-231 (HTB 26) breast cancer cell line (obtained from ATCC, Rockville, USA) were cultured in McCoy's 5A medium containing L-glutamine, 2.2 g/l NaHCO3 and 5% fetal calf serum. Cells were maintained in a water saturated atmosphere (95% air/5% carbon dioxide) at 37° C. in 75-cm^2 culture flasks, and were serially passaged following trypsinization using 0.05% trypsin/0.02% EDTA.
as §1

[6] = tested on: U373 glioblastoma cell line; test: as above; assay type: cell-based, human; conditions: U373, over a week
Description: as §1
The EGF-receptor independent U373 Human Glioblastoma cell line (obtained from ATCC, Rockville, USA) was cultured as above. Treatment with the compound of the formula 1 and analysis of growth inhibition was performed analogous to Example 3.

CDK1, sequence (P06493 whole entry, species assumed): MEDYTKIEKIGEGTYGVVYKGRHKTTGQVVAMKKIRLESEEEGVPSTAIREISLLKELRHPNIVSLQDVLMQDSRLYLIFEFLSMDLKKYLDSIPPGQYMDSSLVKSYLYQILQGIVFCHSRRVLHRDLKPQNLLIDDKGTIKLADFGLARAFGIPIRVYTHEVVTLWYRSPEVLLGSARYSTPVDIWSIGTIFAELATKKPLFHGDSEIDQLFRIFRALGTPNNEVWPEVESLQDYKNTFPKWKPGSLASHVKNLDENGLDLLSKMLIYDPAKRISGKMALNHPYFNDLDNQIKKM
CDK1, sequence (P14635 whole entry partner, species assumed): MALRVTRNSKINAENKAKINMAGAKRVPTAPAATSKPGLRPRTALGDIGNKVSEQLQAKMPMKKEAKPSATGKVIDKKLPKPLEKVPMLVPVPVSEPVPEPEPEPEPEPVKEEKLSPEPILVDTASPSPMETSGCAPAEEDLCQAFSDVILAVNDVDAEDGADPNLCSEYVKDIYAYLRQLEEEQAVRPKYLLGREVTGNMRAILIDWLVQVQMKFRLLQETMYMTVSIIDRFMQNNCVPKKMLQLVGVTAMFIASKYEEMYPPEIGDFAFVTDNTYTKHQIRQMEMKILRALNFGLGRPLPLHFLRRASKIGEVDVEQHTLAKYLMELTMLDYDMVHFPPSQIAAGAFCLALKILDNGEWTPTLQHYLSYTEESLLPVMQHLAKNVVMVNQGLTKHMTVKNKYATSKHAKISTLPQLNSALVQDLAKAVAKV
ERK2, sequence (P28482 whole entry, species assumed): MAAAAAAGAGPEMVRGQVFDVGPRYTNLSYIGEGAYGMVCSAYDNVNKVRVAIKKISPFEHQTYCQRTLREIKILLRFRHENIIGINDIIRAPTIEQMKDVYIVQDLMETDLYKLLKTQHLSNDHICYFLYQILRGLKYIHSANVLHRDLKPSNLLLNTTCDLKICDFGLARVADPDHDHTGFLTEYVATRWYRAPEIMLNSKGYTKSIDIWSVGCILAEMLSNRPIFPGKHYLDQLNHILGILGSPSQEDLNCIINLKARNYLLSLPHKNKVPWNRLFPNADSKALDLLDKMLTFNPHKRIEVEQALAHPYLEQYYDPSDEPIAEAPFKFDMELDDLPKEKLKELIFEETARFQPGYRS

Compound | potency and selectivity profile compared with 1 [1] | IC50 (PKC) | IC50 (ERK2) | IC50 (CDK1) | IC50 (GSK3) | IC50 (PKA) | other results
CNC(=O)[C@@]1(N)C[C@H]2O[C@]1(C)n1c3ccccc3c3c4c(c5c6ccccc6n2c5c31)C(=O)NC4=O [Compound 3] | virtually identical potency and selectivity profile as 1 | – | – | – | – | – | –
CNC(=O)[C@@]1(O)CC2CC1n1c3ccccc3c3c4c(c5c6ccccc6n2c5c31)C(=O)NC4 (some centres unmarked) [Compound 9] | – | 0.21 µM | 0.48 µM | 0.11 µM | 0.4 µM | 0.55 µM | –
C[C@]12O[C@H](C[C@]1(N)C(N)=O)n1c3ccccc3c3c4c(c5c6ccccc6n2c5c31)CNC4=O [Compound 2] | virtually identical potency and selectivity profile as 1 | – | – | – | – | – | –
CS(=O)(=O)CCNCc1ccc(-c2ccc3ncnc(Nc4ccc(OCc5cccc(F)c5)c(Cl)c4)c3c2)o1 [Tykerb] | – | – | – | – | – | – | share of breast cancer tumor cell lines with growth inhibitory activity [2]: about 20%
CO[C@@H]1[C@H](N(C)C(=O)c2ccccc2)C[C@H]2O[C@]1(C)n1c3ccccc3c3c4c(c5c6ccccc6n2c5c31)C(=O)NC4 [PKC-412] | – | – | – | – | – | – | human serum binding [3]: extreme human serum binding
COC(=O)[C@@]1(N)CC2OC1(C)n1c3ccccc3c3c4c(c5c6ccccc6n2c5c31)C(=O)NC4 (some centres unmarked) [Compound 6] | – | > 10 µM | 0.87 µM | 0.65 µM | > 10 µM | > 10 µM | proliferation of HT29 cells [4]: completely ineffective; growth of MDA-MB-231 cells ([5]; 10 nM, 1 week of exposure): virtually ineffective; concentration required for a similar effect as 10 nM of 1 ([5]; MDA-MB-231, 1 week): ten-fold higher concentration; concentration required for a similar effect as 10 nM of 1 [6]: ten-fold higher concentration
CNC(=O)[C@@]1(O)CC2CC1n1c3ccccc3c3c4c(c5c6ccccc6n2c5c31)C(=O)NC4=O (some centres unmarked) [Compound 8] | – | 0.12 µM | 0.12 µM | 0.063 µM | 0.037 µM | 0.078 µM | –
CNC(=O)[C@@]1(N)CC2CC1n1c3ccccc3c3c4c(c5c6ccccc6n2c5c31)C(=O)NC4 (some centres unmarked) [Compound 7] | – | 0.26 µM | 0.6 µM | 0.18 µM | 0.35 µM | 0.44 µM | –
C[C@]12O[C@H](C[C@]1(N)C(N)=O)n1c3ccccc3c3c4c(c5c6ccccc6n2c5c31)C(=O)NC4=O [Compound 4] | virtually identical potency and selectivity profile as 1 | – | – | – | – | – | –
